{"source": "ChEMBL document CHEMBL2203038", "about": "“Isolation and synthesis of two antiproliferative calamenene-type sesquiterpenoids from Sterculia tavia from the Madagascar rain forest” (Bioorg Med Chem, 2012)"}
{"tested_on": "A2780", "test": "Antiproliferative activity against human A2780 cells after 2 days by alamar blue assay", "type": "functional, cell-based", "settings": "A2780, 48 h", "units": {"IC50": "µM"}}
{"molecule": "COc1cc2c(cc1C)[C@@](O)(C(C)C)C(=O)C(=O)[C@]2(C)O", "note": "(stereo in doubt)", "IC50": 6.3}
{"molecule": "COc1cc2c(cc1C)C(C(C)C)CC(=O)[C@]2(C)O", "note": "(stereo partly specified)", "IC50": 33.9}
{"molecule": "COc1cc2c(cc1C)C(C(C)C)=CC(=O)[C@]2(C)O", "note": "[LACINILENE C METHYL ETHER]", "IC50": 4}
{"molecule": "COc1cc2c(cc1C)[C@](O)(C(C)C)C(=O)C(=O)[C@]2(C)O", "note": "(stereo in doubt)", "IC50": 5.5}
{"molecule": "COc1cc2c(cc1C)C(C(C)C)CC(O)[C@]2(C)O", "note": "(stereo partly specified)", "IC50": "> 50"}
{"molecule": "COc1cc2c(cc1C)C(C(C)C)CC=C2C", "note": "(stereo unspecified)", "IC50": "> 50"}
{"molecule": "COc1cc2c(cc1C)[C@@](O)(C(C)C)C(=O)C(=O)[C@@]2(C)O", "note": "(stereo in doubt)", "IC50": 5.9}
{"molecule": "COc1cc2c(cc1C)C(O)(C(C)C)C(O)C(O)[C@]2(C)O", "note": "(mixture of isomers)", "IC50": 35.5}
{"molecule": "COc1cc2c(cc1C)C(C(C)C)=CC(O)[C@]2(C)O", "note": "(stereo partly specified)", "IC50": 22.1}
{"molecule": "COc1cc2c(cc1C)[C@](O)(C(C)C)C(=O)C(=O)[C@@]2(C)O", "note": "(stereo in doubt)", "IC50": 6.7}
{"molecule": "CC1=Cc2c(c(C)cc(O)c2C(C)C)C(=O)C1=O", "note": "[MANSONONE G]", "IC50": 10.2}
